# Legend:
# [1] = system: sAPP Secretion in Rat-Derived Pheochromocytoma PC12h Cells; assay: sAPP secretion promoting activity in PC12h cells (Western blotting of culture supernatant); format: cell-based; settings: 3 hours after addition
# Protocol: Substrain PC12 h cells of rat-derived pheochromocytoma PC12 h cells (Brain Res., 222 (191), p. 225-233) were handed out by Professor Hiroshi Hatanaka of Osaka University. Dulbecco's modified Eagle's medium (DMEM) was purchased from Nissui Seiyaku K.K., HEPES (N-2-hydroxyethylpiperazine-N′-2-ethanesulfonic acid) buffer (pH 7.4), horse serum (HS) and a penicillin (5000 U/ml)/streptomycin (5 mg/ml) mixture from Gibco, and fetal calf serum (FCS) from BioWhittaker, Inc. A flask for incubation and a 6-well multi-well plate coated with collagen manufactured by Falcon Co., Ltd. and Iwaki Glass Co., Ltd., respectively, were used. Anti-βAPP 22C11 antibody was purchased from Roche Diagnostics, Inc. Other reagents used were special grade chemicals commercially available.
# PC12h cells were grown in DMEM medium supplemented with 10% FCS/5% HS/penicillin-streptomycin, the cells were taken out by pipetting. The cells were inoculated on the collagen-coated 6-well plate to become 50-70% confluent, which was allowed to stand for a day. On the following day, the well was rinsed twice with 1 ml of […] HEPES/DMEM. […]
# The culture supernatant was concentrated by ultrafiltration using Microcon 10 (Amicon, Inc.). […] ECL Plus (Amersham, Inc.) was used for detection, followed by digitalization in Fluor-S Max (Bio-Rad Laboratories) and quantification using NIH-image.
# PC12h cells = assay: Prevention of glutamate-induced cell death (apoptosis) in PC12h cells, surviving cells by LDH activity; format: cell-based, rat; settings: 1 mM glutamate, 72 hours, mean of 3 wells
# Protocol: Substrain PC12h cells of rat-derived pheochromocytoma PC12 h cells were handed out by Professor Hiroshi Hatanaka of Osaka University. Dulbecco's modified Eagle's medium (DMEM) was purchased from Nissui Seiyaku K.K., HEPES (N-2-hydroxyethylpiperazine-N′-2-ethanesulfonic acid) buffer (pH 7.4), horse serum (HS) and a penicillin (5000 U/ml)/streptomycin (5 mg/ml) mixture from Gibco, fetal calf serum (FCS) from BioWhittaker, Inc., transferrin, insulin and progesterone from Sigma, Inc. A flask for incubation and a collagen-coated 96-well multi-well plate used were manufactured by Falcon Co., Ltd. and Iwaki Glass Co., Ltd., respectively. LDH cytotoxic test Wako was purchased from Wako Pure Chemical Industries, Ltd. Other reagents used were special grade chemicals commercially available.
# PC12h cells were inoculated on the 96-well plate in 2×10^4 cells/cm^2. On the following day, the medium was exchanged with HEPES/DME medium containing […] and 20 nM progesterone. The cells survived 72 hours after were counted. The cell number was determined by solubilizing the cells survived in PBS containing Tween 20 after removal of the medium and assaying in terms of the LDH activity.
# In PC12h cells, glutamate in the medium hampers uptake of cystine, or a material to make glutathione, into cells. Thus, when 1 mM or more glutamates are added to a medium and incubation is continued for 3 days or longer, it is known that PC12h cells become extinct due to apoptosis accompanied by a reduced level of glutathione in the cells.
SMILES,"sAPP secretion level (relative value to the control group, when the control group is made 100) ([1]; 3 μM of each compound, mean of 3 wells, anti-βAPP 22C11 Western blotting quantified with NIH Image)","sAPP level increase as compared to the control group ([1]; 3 μM, mean relative value in 3 wells (FIG. 2)) [times]",Surviving Rate (%) (PC12h cells; 0.1 μM compound),Surviving Rate (%) (PC12h cells; 0.3 μM compound),Surviving Rate (%) (PC12h cells; 1.0 μM compound),Surviving Rate (%) (PC12h cells; 3.0 μM compound),Surviving Rate (%) (PC12h cells; 10.0 μM compound),melting point [°C]
"COc1ccc(C(=O)N2c3ccccc3[C@H](Nc3ccccc3)C[C@@H]2C)cc1OC (relative stereo) [Compound 1-3, cis-1-(3,4-dimethoxybenzoyl)-2-methyl-N-phenyl-1,2,3,4-tetrahydro-4-quinolinamine]",325.14,3.3,4.89,7.44,49.17,77.51,63.24,–
"COc1ccc(C(=O)N2CCC(N(C)c3ccc(Br)cc3)c3ccccc32)cc1OC (stereo not drawn) [Example 37, N-(4-Bromophenyl)-1-(3,4-dimethoxybenzoyl)-N-methyl-1,2,3,4-tetrahydro-4-quinolinamine]",–,–,–,–,–,–,–,73 to 74
"C[C@H]1C[C@H](Nc2ccccc2)c2ccccc2N1C(=O)c1ccc(Br)o1 (relative stereo) [Example 41, trans-1-(5-Bromo-2-furoyl)-2-methyl-N-phenyl-1,2,3,4-tetrahydro-4-quinolinamine]",–,–,–,–,–,–,–,117 to 118

# — patent publication US20030216398A1, “Soluble beta amyloid precursor protein secretion promoters” (priority 2002, published 2003)
